# Measured values reported in patent US20020137929A1, “1 - (3-heterocyclylphenyl) isothiourea, -isourea, -guanidine and -amidine herbicidal agents” (Intellectual Property Department, BASF Aktiengesellschaft, priority 1998, published 2002).
# Legend:
# ECHCG (Barnyardgrass) = assay: Preemergence herbicidal evaluation; format: in vivo, Echinochloa crus-galli; settings: rated 4-5 weeks after treatment, rating scale 0-9
# Summary of the method: (§1)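 Sown cups got a single aqueous acetone spray of test compound (roughly 0.0156–0.500 kg/ha) before seedlings emerged. Evaluation, 4–5 weeks on, used a 0–9 visual scale covering plant stand, vigor, size, malformation, chlorosis and general appearance compared with controls.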
# SETVI (Foxtail, Green) [1] = assay: Preemergence herbicidal evaluation; format: in vivo, Setaria viridis; settings: rated 4-5 weeks after treatment, rating scale 0-9
# Summary of the method: as §1
# [2] = tested on: TRZAWR (Wheat, Winter, cv Riband); assay: Postemergence herbicidal evaluation; format: in vivo, Triticum aestivum; settings: postemergence
# Summary of the method: (§2)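 Scores (0–9) reflect plant stand, vigor, malformation, size, chlorosis and general appearance relative to control, read 4 to 5 weeks after treatment and averaged where tests were repeated. Application: about 0.0156–0.500 kg/ha sprayed at 40 psi onto two-week seedlings.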
# CYPIR (Rice Flatsedge) = assay: Preemergence weed control under flooded paddy conditions; format: in vivo, Cyperus iria; settings: rated 3-4 weeks after treatment
# Summary of the method: (§3)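 Ratings on a 0-9 visual scale cover stand, vigor, malformation, size, chlorosis and overall appearance relative to a control, taken three to four weeks post-treatment. Application was into flood water over freshly sown silt loam at roughly 0.0313 to 0.500 kg/ha.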
# [3] = tested on: ECHORC (Watergrass (Calif.)); assay: as above; format: in vivo, Echinochloa oryzoides; settings: rated 3-4 weeks after treatment
# Summary of the method: as §3
# GALAP (Galium) = assay: Postemergence herbicidal evaluation; format: in vivo, Galium aparine; settings: postemergence
# Summary of the method: as §2
# MOOVA (Monochoria) = assay: Preemergence weed control under flooded paddy conditions; format: in vivo, Monochoria vaginalis; settings: rated 3-4 weeks after treatment
# Summary of the method: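 Seeds or propagules sown in top 0.5 cm of silt loam soil, flooded 1.5 to 3 cm above surface throughout. Compound in 50/50 v/v aqueous/acetone pipetted into flood water at about 0.0313 to 0.500 kg/ha. Visual 0-9 rating versus control after three to four weeks in greenhouse.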
# ZEAMX (Corn, Field) = assay: Preemergence herbicidal evaluation; format: in vivo, Zea mays; settings: rated 4-5 weeks after treatment, rating scale 0-9
# Summary of the method: as §1
# ABUTH (Velvetleaf) = assay: Preemergence herbicidal evaluation; format: in vivo, Abutilon theophrasti; settings: rated 4-5 weeks after treatment, rating scale 0-9
# Summary of the method: as §1
# [4] = tested on: IPOHE (Morningglory, Ivyleaf); assay: Postemergence herbicidal evaluation; format: in vivo, Ipomoea hederacea; settings: postemergence
# Summary of the method: as §2
# SETVI (Foxtail, Green) [5] = assay: Postemergence herbicidal evaluation; format: in vivo, Setaria viridis; settings: postemergence
# Summary of the method: as §2
# [6] = tested on: IPOHE (Morningglory, Ivyleaf); assay: Preemergence herbicidal evaluation; format: in vivo, Ipomoea hederacea; settings: rated 4-5 weeks after treatment, rating scale 0-9
# Summary of the method: as §1
smiles,measurement,setting,value
"Cn1c(C(F)(F)F)cc(=O)n(-c2cc(N=C3SCC(=O)N3Cc3ccc(Br)cc3)c(Cl)cc2F)c1=O [Compound 148, 3-{5-{[3-(p-Bromobenzyl)-4-oxo-2-thiazolidinyl-idene]amino}-4-chloro-2-fluorophenyl}-1-methyl-6-(trifluoromethyl)-2,4(1H,3H)-pyrimidinedione]",Preemergence herbicidal rating ECHCG,ECHCG (Barnyardgrass); rate 0.0313 kg/ha,0.0
same,Preemergence herbicidal rating ECHCG,ECHCG (Barnyardgrass); rate 0.0625 kg/ha,0.0
same,Preemergence herbicidal rating ECHCG,ECHCG (Barnyardgrass); rate 0.1250 kg/ha,0.0
same,Preemergence herbicidal rating ECHCG,ECHCG (Barnyardgrass); rate 0.2500 kg/ha,0.0
same,Preemergence herbicidal rating SETVI,"SETVI (Foxtail, Green) [1]; rate 0.0313 kg/ha",1.0
same,Preemergence herbicidal rating SETVI,"SETVI (Foxtail, Green) [1]; rate 0.0625 kg/ha",0.0
same,Preemergence herbicidal rating SETVI,"SETVI (Foxtail, Green) [1]; rate 0.1250 kg/ha",0.0
same,Preemergence herbicidal rating SETVI,"SETVI (Foxtail, Green) [1]; rate 0.2500 kg/ha",5.0
same,herbicidal rating TRZAWR,[2]; rate 0.0156 kg/ha,2.5
same,herbicidal rating TRZAWR,[2]; rate 0.0313 kg/ha,3.0
same,herbicidal rating TRZAWR,[2]; rate 0.0625 kg/ha,4.0
same,"herbicidal effect rating, CYPIR",CYPIR (Rice Flatsedge); 0.0313 kg/ha,4.0
same,"herbicidal effect rating, CYPIR",CYPIR (Rice Flatsedge); 0.0625 kg/ha,4.0
same,"herbicidal effect rating, CYPIR",CYPIR (Rice Flatsedge); 0.1250 kg/ha,6.0
same,"herbicidal effect rating, CYPIR",CYPIR (Rice Flatsedge); 0.2500 kg/ha,7.0
same,"herbicidal effect rating, ECHORC",[3]; 0.0313 kg/ha,6.0
same,"herbicidal effect rating, ECHORC",[3]; 0.0625 kg/ha,7.0
same,"herbicidal effect rating, ECHORC",[3]; 0.1250 kg/ha,9.0
same,"herbicidal effect rating, ECHORC",[3]; 0.2500 kg/ha,9.0
same,herbicidal rating GALAP,GALAP (Galium); rate 0.0156 kg/ha,2.0
same,herbicidal rating GALAP,GALAP (Galium); rate 0.0313 kg/ha,2.0
same,herbicidal rating GALAP,GALAP (Galium); rate 0.0625 kg/ha,2.0
same,"herbicidal effect rating, MOOVA",MOOVA (Monochoria); 0.0313 kg/ha,7.0
same,"herbicidal effect rating, MOOVA",MOOVA (Monochoria); 0.0625 kg/ha,7.0
same,"herbicidal effect rating, MOOVA",MOOVA (Monochoria); 0.1250 kg/ha,9.0
same,"herbicidal effect rating, MOOVA",MOOVA (Monochoria); 0.2500 kg/ha,9.0
same,Preemergence herbicidal rating ZEAMX,"ZEAMX (Corn, Field); rate 0.0313 kg/ha",0.0
same,Preemergence herbicidal rating ZEAMX,"ZEAMX (Corn, Field); rate 0.0625 kg/ha",0.0
same,Preemergence herbicidal rating ZEAMX,"ZEAMX (Corn, Field); rate 0.1250 kg/ha",0.0
same,Preemergence herbicidal rating ZEAMX,"ZEAMX (Corn, Field); rate 0.2500 kg/ha",1.0
same,Preemergence herbicidal rating ABUTH,ABUTH (Velvetleaf); rate 0.0313 kg/ha,0.0
same,Preemergence herbicidal rating ABUTH,ABUTH (Velvetleaf); rate 0.0625 kg/ha,1.0
same,Preemergence herbicidal rating ABUTH,ABUTH (Velvetleaf); rate 0.1250 kg/ha,4.0
same,Preemergence herbicidal rating ABUTH,ABUTH (Velvetleaf); rate 0.2500 kg/ha,4.0
same,herbicidal rating IPOHE,[4]; rate 0.0156 kg/ha,9.0
same,herbicidal rating IPOHE,[4]; rate 0.0313 kg/ha,9.0
same,herbicidal rating IPOHE,[4]; rate 0.0625 kg/ha,9.0
same,herbicidal rating SETVI,"SETVI (Foxtail, Green) [5]; rate 0.0156 kg/ha",2.0
same,herbicidal rating SETVI,"SETVI (Foxtail, Green) [5]; rate 0.0313 kg/ha",2.0
same,herbicidal rating SETVI,"SETVI (Foxtail, Green) [5]; rate 0.0625 kg/ha",4.0
same,Preemergence herbicidal rating IPOHE,[6]; rate 0.0313 kg/ha,0.0
same,Preemergence herbicidal rating IPOHE,[6]; rate 0.0625 kg/ha,0.0
same,Preemergence herbicidal rating IPOHE,[6]; rate 0.1250 kg/ha,0.0
same,Preemergence herbicidal rating IPOHE,[6]; rate 0.2500 kg/ha,0.0
